These results are taken from ChEMBL document CHEMBL5465560, “Selectivity Literature for EUbOPEN Chemogenomic Library” (2024).

Assay [1] concerns the target T1, Rhodopsin kinase GRK7 (Homo sapiens) (UniProt Q8WTQ7).
T1 sequence (whole entry): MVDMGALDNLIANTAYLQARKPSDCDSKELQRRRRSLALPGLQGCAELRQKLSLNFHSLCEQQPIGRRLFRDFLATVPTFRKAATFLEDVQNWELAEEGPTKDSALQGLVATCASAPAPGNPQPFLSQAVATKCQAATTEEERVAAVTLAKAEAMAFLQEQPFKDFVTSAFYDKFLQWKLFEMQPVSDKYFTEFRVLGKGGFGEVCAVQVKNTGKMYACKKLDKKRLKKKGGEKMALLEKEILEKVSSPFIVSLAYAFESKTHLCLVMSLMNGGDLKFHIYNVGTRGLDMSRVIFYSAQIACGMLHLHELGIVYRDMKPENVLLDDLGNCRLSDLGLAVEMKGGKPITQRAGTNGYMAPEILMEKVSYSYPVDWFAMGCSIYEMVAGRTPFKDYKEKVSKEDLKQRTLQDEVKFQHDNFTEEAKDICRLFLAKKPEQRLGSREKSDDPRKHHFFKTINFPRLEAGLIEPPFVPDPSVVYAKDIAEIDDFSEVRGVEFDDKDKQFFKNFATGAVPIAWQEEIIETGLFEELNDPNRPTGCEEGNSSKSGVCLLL
In words: Selectivity interaction (SelectScreen profiling (Invitrogen)) EUB0000607a GRK7. As to conditions: at 2 µM.

The target of assay [2] is T2, Homeodomain-interacting protein kinase 4 (Homo sapiens) (UniProt Q8NE63).
T2 sequence (whole entry): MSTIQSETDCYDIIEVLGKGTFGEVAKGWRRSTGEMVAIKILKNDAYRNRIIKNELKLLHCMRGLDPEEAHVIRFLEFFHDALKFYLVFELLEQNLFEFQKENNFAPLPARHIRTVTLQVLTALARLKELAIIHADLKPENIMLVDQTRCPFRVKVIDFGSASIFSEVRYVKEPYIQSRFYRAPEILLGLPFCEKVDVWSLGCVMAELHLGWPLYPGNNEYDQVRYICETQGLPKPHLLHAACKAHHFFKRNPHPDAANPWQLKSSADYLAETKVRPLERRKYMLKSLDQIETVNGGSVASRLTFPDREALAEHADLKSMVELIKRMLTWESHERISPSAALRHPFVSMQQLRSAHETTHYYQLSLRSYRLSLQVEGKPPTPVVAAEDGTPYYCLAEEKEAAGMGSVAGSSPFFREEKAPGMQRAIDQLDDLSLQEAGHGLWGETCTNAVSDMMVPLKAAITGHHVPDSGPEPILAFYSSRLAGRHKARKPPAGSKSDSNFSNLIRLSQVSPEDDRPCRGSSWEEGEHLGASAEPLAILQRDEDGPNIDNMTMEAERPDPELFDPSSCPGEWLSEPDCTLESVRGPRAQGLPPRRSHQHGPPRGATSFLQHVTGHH
In words: Selectivity interaction (KinomeScan (DiscoverX)) EUB0000607a HIPK4. As to conditions: at 10 µM.

The target of assay [3] is T3, Myotonin-protein kinase (Homo sapiens) (UniProt Q09013).
T3 sequence (whole entry): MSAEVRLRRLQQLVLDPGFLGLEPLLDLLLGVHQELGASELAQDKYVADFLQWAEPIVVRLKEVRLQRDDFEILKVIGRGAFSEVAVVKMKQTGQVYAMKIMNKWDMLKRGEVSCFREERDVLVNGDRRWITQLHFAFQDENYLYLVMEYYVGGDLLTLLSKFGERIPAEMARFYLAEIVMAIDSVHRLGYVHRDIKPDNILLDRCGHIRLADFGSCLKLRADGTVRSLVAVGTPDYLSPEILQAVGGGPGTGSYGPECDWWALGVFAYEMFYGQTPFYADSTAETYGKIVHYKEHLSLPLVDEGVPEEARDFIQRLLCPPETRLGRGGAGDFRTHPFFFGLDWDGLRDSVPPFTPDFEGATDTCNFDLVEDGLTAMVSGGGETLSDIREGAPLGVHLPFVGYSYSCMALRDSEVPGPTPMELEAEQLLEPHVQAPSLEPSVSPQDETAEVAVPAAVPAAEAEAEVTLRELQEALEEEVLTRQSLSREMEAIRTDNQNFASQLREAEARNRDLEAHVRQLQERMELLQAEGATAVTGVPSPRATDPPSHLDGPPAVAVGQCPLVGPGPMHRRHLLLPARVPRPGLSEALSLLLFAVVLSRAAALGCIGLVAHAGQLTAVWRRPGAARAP
The assay can be described thus: Selectivity interaction (KinomeScan (DiscoverX)) EUB0001619a DMPK. The note with it: at 1 µM.

Assay [4] has as its target T4, Serine/threonine-protein kinase ULK1 (Homo sapiens) (UniProt O75385).
T4 sequence (whole entry): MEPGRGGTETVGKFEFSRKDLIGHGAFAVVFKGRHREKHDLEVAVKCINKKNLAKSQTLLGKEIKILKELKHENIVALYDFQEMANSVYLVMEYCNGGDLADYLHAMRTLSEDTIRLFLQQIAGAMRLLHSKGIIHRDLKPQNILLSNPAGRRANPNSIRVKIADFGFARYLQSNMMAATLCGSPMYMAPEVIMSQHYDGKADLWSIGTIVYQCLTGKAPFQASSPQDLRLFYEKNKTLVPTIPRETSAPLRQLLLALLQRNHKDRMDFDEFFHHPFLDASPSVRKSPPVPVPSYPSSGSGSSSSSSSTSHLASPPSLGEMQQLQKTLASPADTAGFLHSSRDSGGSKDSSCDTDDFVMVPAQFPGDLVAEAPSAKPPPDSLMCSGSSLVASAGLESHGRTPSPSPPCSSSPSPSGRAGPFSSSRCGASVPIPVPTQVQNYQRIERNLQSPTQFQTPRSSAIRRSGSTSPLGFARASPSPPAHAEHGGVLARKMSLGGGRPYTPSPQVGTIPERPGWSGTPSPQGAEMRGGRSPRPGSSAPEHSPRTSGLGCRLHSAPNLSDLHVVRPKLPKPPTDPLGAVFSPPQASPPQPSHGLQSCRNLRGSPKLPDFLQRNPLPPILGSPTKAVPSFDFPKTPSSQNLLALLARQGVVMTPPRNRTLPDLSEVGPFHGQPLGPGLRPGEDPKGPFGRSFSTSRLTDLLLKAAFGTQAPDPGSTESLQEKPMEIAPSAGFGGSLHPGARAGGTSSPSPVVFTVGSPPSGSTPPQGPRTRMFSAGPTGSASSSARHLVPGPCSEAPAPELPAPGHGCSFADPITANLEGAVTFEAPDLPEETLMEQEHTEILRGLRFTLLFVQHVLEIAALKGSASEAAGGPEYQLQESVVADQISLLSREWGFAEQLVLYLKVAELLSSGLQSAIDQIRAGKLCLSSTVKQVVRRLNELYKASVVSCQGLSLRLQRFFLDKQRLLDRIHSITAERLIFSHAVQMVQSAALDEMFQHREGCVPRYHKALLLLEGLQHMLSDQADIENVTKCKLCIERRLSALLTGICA
In words: Selectivity interaction (KinomeScan (DiscoverX)) EUB0001619a ULK1. The note with it: at 1 µM.

Assay [5] addresses Cyclin-dependent kinase 17 (Homo sapiens) (UniProt Q00537). The assay can be described thus: Selectivity interaction (KinomeScan (DiscoverX)) EUB0001049a CDK17. As to conditions: at 1 µM.
The target in assay [6] is Casein kinase I isoform gamma-3 (Homo sapiens) (UniProt Q9Y6M4). In words: Selectivity interaction (KinomeScan (DiscoverX)) EUB0000595a CSNK1G3. As to conditions: at 10 µM.
Chain of Casein kinase I isoform gamma-3 (Homo sapiens) (Q9Y6M4 whole entry, looked up, canonical isoform): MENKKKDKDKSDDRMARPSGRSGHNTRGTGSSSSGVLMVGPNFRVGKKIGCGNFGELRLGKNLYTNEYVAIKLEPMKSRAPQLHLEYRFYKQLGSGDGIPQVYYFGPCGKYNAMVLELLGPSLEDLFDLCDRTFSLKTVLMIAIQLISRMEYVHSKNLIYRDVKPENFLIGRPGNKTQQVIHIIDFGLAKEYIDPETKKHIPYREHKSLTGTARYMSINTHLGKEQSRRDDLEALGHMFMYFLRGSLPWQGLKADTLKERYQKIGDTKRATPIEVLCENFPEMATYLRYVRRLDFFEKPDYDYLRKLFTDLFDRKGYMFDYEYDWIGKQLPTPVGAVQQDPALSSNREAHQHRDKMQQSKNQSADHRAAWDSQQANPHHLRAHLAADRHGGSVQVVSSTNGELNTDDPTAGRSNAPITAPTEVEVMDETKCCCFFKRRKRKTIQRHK

Chain of Cyclin-dependent kinase 17 (Homo sapiens) (Q00537 whole entry, looked up, canonical isoform): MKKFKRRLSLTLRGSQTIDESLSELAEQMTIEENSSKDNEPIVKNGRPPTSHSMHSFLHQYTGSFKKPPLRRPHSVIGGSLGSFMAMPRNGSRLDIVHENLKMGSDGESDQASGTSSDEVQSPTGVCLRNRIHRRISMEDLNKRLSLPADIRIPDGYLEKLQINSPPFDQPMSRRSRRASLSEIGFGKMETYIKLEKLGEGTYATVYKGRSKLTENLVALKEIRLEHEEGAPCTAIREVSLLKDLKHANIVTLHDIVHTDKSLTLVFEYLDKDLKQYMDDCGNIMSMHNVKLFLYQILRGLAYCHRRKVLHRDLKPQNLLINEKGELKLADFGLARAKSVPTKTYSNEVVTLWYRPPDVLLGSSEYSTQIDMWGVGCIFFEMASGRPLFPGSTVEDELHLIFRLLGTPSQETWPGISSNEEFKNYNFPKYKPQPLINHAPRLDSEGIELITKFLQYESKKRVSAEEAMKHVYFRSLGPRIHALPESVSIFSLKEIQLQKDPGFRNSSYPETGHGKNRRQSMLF

Compound `CNC(=O)Nc1ccc(-c2nc(N3CC4CCC(C3)O4)c3cnn(C4CCC5(CC4)OCCO5)c3n2)cc1` came in with a % of inhibition in assay [1] of 7%. The compound further had a % of control in assay [2] of 100%.

Regarding `N#Cc1cccc(-c2c[nH]c3ncnc(N4CCOCC4)c23)c1`, the % of control in assay [3] stood at 87%; in assay [4], 65%.

Turning to `COc1cc(Nc2nc(C)cc(-c3cnn4nc(OC)ccc34)n2)cc(C(F)(F)F)c1`, in assay [5], the % of control was determined as 100%.

`COCC(=O)NC/C=C/c1ccc2ncnc(Nc3ccc(Oc4ccc(C)nc4)c(C)c3)c2c1` [CP-724714] came in with a % of control in assay [6] of 100%.
